Measured values as given in the METLIN SMRT retention time set (Domingo-Almenara et al. 2019).

Assay: gradient 5% acetonitrile 3 min, to 50% in 2 min, to 85% in 15 min, held 3 min, 100 µL/min
Conditions: column: Zorbax Extend-C18 2.1 x 50 mm; eluents: water / acetonitrile, 0.1% formic acid
Summary of the method: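 Retention time was recorded from adduct peaks, which were picked computationally and each inspected manually. Pure standards ran in mixtures of ~100 molecules on HPLC coupled to a quadrupole time-of-flight mass spectrometer, in positive and negative ionization mode, through a Zorbax Extend-C18 column (2.1 × 50 mm, 1.8 μm) at 100 μL/min. Eluents were water and acetonitrile, each with 0.1% formic acid.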

RP-LC retention time [s]	Compound
742	CC(C)CC(=O)NC1CCN(c2ccc(F)cc2)C1=O (stereo unspecified)
586	Cn1nc(C(=O)N2CCCCC2)c2c1CCN(C(=O)CCC(=O)NCCN1CCCCC1)C2
731	CN1C(=O)c2cccn2CC1C(=O)NC1CCCCCC1 (stereo unspecified)
668	CCNc1nc(C)cc(N2CCN(C(=O)Nc3cc(C)ccc3C)CC2)n1
577	CC(=O)Nc1ccc(OCC(O)CN2CCC(Cc3ccccc3)CC2)cc1 (stereo unspecified)
657	O=C1CCCC(=O)N1CCS(=O)(=O)Nc1ccc(Cl)c(N2CCCS2(=O)=O)c1
630	CCN1C(=O)C2(CCN(C(=O)c3cn(C)cn3)CC2)c2ccccc21
1040	Cc1ccccc1-c1nnc(CSc2nnc(NC(=O)c3cccc(Cl)c3)s2)o1
914	COC(=O)c1ccc(-c2nc3cnccn3c2Nc2c(C)cccc2C)cc1
675	Cc1nc2scc(C)n2c(=O)c1NC(=O)CCSc1ccccc1
762	Cc1noc(-c2cccc(OC3CN(C(=O)CN4C(=O)CCC4=O)C3)c2)n1
823	COc1ccc(OC)c(S(=O)(=O)N2CCOc3ccc(NC(=O)C4CC4)cc3C2)c1
1270	CCc1ccc(OCc2ccc(C(=O)Nc3nc(-c4ccccc4)cs3)o2)cc1
727	Nc1cc(=O)nc(SCC(=O)Nc2nc(-c3ccccc3)cs2)n1-c1ccccc1
933	CCCn1c(=O)c(N2CCC(NC(=O)Nc3ccc4c(c3)OCCO4)CC2)nc2ccccc21
759	CCN1C(=O)COc2ccc(-c3nc(NC(C)=O)sc3C)cc21
707	Cc1ccc(-c2nc3ccccn3c2NC(=O)Nc2cc(F)ccc2F)cc1
609	O=C(Cc1nnc2c(-c3nc(C4CC4)no3)cccn12)N1CCOCC1
612	CCc1nnc([C@@H]2CC(F)(F)CN2C(=O)Cn2nc(C)cc2C)o1
642	Cc1ccc(C(C)NC(=O)c2cn3c(n2)CCCC3)c(C)c1 (stereo unspecified)
795	Cn1c(=O)c2cc(C(=O)NCc3ccccc3Cl)sc2n(C)c1=O
933	O=C(NCc1ccc(N2CCOCC2)cc1)C1CCCN(c2nccnc2Sc2ccccc2)C1 (stereo unspecified)
984	O=C(Cn1cnc2sc3c(c2c1=O)CCCC3)Nc1cccc(Cl)c1
709	CC(C)NC(=O)C1CCCN(c2nc3ncn(CC(=O)NC4CCc5ccccc54)c(=O)c3s2)C1 (stereo unspecified)

RP-LC retention time [s]	Compound
1230	COc1ccccc1CNc1ccc(-c2nc(-c3cccc(F)c3)no2)cn1
651	CC(NC(=O)c1ccc(-c2ccnc(N3CCCCC3)n2)cc1)c1cccnc1 (stereo unspecified)
788	O=C(CN1CCN(Cc2ccccc2)C1=O)N1CCN(c2ccccc2)CC1
987	CC1CCN(S(=O)(=O)c2ccc3c(c2)CCCC(=O)N3CC(=O)NC2CCCCC2)CC1
838	Cc1cccc(S(=O)(=O)N2CCC(N3CCN(Cc4ccccc4)C(=O)C3=O)CC2)c1
743	COC(=O)c1ccc(CSc2nnc(NC(=O)c3snnc3C)s2)o1
780	COc1ccc(NC(=O)C2CCN(S(=O)(=O)c3ccc4c(c3)CCCN4C(C)=O)CC2)cc1
680	CCn1nccc1-c1nc(C2CC(=O)N(c3ccc(C)cc3)C2)no1 (stereo unspecified)
827	COc1ccc(-c2noc(-c3nn(-c4ccc(OC)cc4)ccc3=O)n2)cc1
725	Cn1cc(CC(=O)NCc2ccc(F)c(Cl)c2)c2cccnc21
1020	CSc1cccc(NC(=O)Cn2cccc(-c3nc(-c4ccc(Cl)cc4)no3)c2=O)c1
835	O=C(Cn1nc2c(Oc3cccc(F)c3)nccn2c1=O)Nc1ccc(F)cc1F
596	CCn1ccc(C(=O)NCC2Cn3cccc3C(=O)N2C)n1 (stereo unspecified)
665	CCOC(=O)C1=C(CN2CCC(C(=O)OCC)CC2)NC(=O)NC1c1ccc(C)cc1 (stereo unspecified)
677	Cc1ncc([N+](=O)[O-])n1CC(O)CCl (stereo unspecified)
765	Clc1cccc(CSc2ncnc3nc[nH]c23)c1
683	CC1(C)NC(=O)N(CCC(=O)N2CCCn3nc(-c4ccc(F)cc4)cc3C2)C1=O
623	CN1C(=O)c2cc(C(=O)NCCCN3CCc4ccccc4C3)nn2CC1(C)C(=O)NC1CCCC1 (stereo unspecified)
712	COc1cccc(-c2nc(NCC3CCCO3)ncc2C(=O)O)c1 (stereo unspecified)
1060	CC(C)c1cc(C(=O)Nc2ccc(Cl)cc2)nc2ccnn12
531	COCCN1CC(CO)C2(CCN(Cc3cccc(Cl)c3)CC2)C1 (stereo unspecified)
733	Cc1ccc(S(=O)(=O)NC(=O)NC2=NC(C)(C)N(c3ccc(Cl)c(Cl)c3)C(N)=N2)cc1
839	CN(Cc1ccsc1)C(=O)Nc1ccc(F)cc1
1000	Cc1cccc(-c2noc(Cn3c(=O)n(-c4ccccc4)c(=O)c4sccc43)n2)c1

Further lines, the compound ahead of its results:

Compound	RP-LC retention time [s]
O=C(CC1CCN(C(=O)c2ccc3nc(-c4ccccc4)oc3c2)CC1)NCC1CCCO1 (stereo unspecified)	722
O=C(NCc1cccc(F)c1)C1CCCN(c2nnc3c(Cl)cccn23)C1 (stereo unspecified)	701
Nc1nnc(-c2ccc(Br)s2)o1	628
Cc1ccc(S(=O)(=O)N2CCCN(C)c3ccccc32)cc1C	603
CC(NC(=O)c1ccco1)c1nc(-c2ccc3ncn(C)c3c2)no1 (stereo unspecified)	599
CCn1cc(C(=O)NCc2ccccc2C)c2cccnc21	809
CCn1c(C(=O)NCCCN2CCCC(C)C2)c(N2CCCC2=O)c2cc(OC)ccc21 (stereo unspecified)	666
CNC(=O)[C@H]1O[C@@H](n2cnc3c(NCc4cccc(I)c4)ncnc32)C(O)C1O (stereo partly specified)	721
O=C(NCc1ccc(Cl)cc1)C1CCN(S(=O)(=O)c2cc(C(=O)N3CCCC3)cs2)CC1	916
Cc1cc(C(=O)N2CCCCCC2c2nnc(C)o2)on1 (stereo unspecified)	669
COc1cccc(C(=O)N2CCc3nc[nH]c3C2)c1OC	555
OCCc1nc2ccccc2n1C/C=C/c1ccccc1	586
Cc1cccc(-c2noc(Cn3ncn4nc(-c5cccs5)cc4c3=O)n2)c1	1100
COc1ccc(CNC(=O)c2ccc3c(c2)nc2n3CCN(C(C)C)C2=O)c(OC)c1	708
CCNc1cc(-n2cccn2)ncn1	666
CCCCc1ccc(N2C=C(C#N)S(=O)(=O)c3ccccc32)cc1	1150
O=C(Nc1ccc2c(c1)OCO2)c1c(O)c2ccccc2n(-c2ccccc2)c1=O	858
CCOC(=O)c1[nH]c(C)c(CN(Cc2ccco2)C(=O)c2ccco2)c1C	902
Cc1ccc(S(=O)(=O)N2CCCCC2CCNC(=O)c2cccn(C)c2=O)cc1 (stereo unspecified)	760
O=C(c1cccnc1)N1CCC(c2noc(-c3cnccn3)n2)C1 (stereo unspecified)	581
CCOc1ccc(-n2nc(-c3nc(-c4ccncc4)no3)c3ccccc3c2=O)cc1	1090
COc1ccc(-c2cc3c(=O)n(Cc4nc(-c5ccccc5)oc4C)ccn3n2)cc1OC	966

Compound	RP-LC retention time [s]
O=C(Nc1ccc(F)cc1)C1CCN(C(=O)C2Sc3ccccc3NC2=O)CC1 (stereo unspecified)	746
Cc1nc2ccccc2c(=O)n1Cc1noc(-c2cccc(Cl)c2)n1	913
Cc1c(C(=O)NCC2CC2)cnn1-c1cc(-c2nc(C(C)(C)C)no2)ccn1	742
Cn1nc(C(=O)N2CCN(c3cc(-c4ccccc4)[nH]n3)CC2)c2ccccc21	805
O=C(Cc1cccs1)NC1CCN(c2cc(-c3ccccc3)[nH]n2)C1 (stereo unspecified)	673
O=C(O)c1cc(NS(=O)(=O)c2ccccc2C(F)(F)F)cc(C(=O)O)c1	660
COCCCNC(=O)N1CCCC1c1nc(-c2cccc(Cl)c2)no1 (stereo unspecified)	853
COc1ccc(C2CC(=O)N(c3ccccc3)C(=O)C2)cc1	842
CCC(C)NC(=O)C1CCCN(C(=O)c2[nH]c(C)c(C(=O)OC(C)C)c2C)C1 (stereo unspecified)	774
CCOC(=O)CCC(=O)Nc1ncc(C#N)s1	667
CCCc1cc(N2CCN(C(=O)c3ccco3)CC2)nc2nnc(CC)n12	617
CCS(=O)(=O)c1ccc2c(c1)N(Cc1nc(-c3ccccc3Cl)no1)C(=O)CO2	895
Cc1cc2nc(C(=O)Nc3ccc(F)c(C)c3)cc(C)n2n1	1010
Cc1cccc(NC(=O)NC2CCN(c3ccc(C)c(C)c3)C2=O)c1 (stereo unspecified)	923
Cc1ccccc1NC(=O)Cn1cnc2c(c1=O)CCCC2	662
Cc1noc(C)c1-c1ccc(S(=O)(=O)NCCC(C)C)cc1	954
CCN1CCn2cc(S(=O)(=O)Nc3ccccc3OC)cc2C1=O	690
O=C(NCc1ccco1)c1ccc(NC(=O)C2CC2)cc1N1CCCCCC1	584
Cc1ccc(NC(=O)Cc2c(C(=O)O)c(C)cn2C)nc1	642
CCOC(=O)COc1cc(-c2ccc(C)cc2)nc2ccc(NC(=O)c3cccs3)cc12	830
COc1ncccc1CNC(=O)Cc1cccnc1	538
